The series can be described thus: Pharmacokinetic parameters following intravenous and oral administration. The series is classed as in vivo, rat. The settings on record: rats, i.v. 0.3 mg/kg and oral 1 mg/kg. An excerpt: • Klaus Witte, Kai Hu, Johanna Swiatek, Claudia Müssig, Georg Ertl and Björn Lemmer: Experimental heart failure in rats: effects on cardiovascular circadian rhythms and on myocardial β-adrenergic signaling. Cardiovasc Res 47 (2): […], 2000; Kozo Okamoto: Spontaneous hypertension in rats. Int Rev Exp Pathol 7: 227-270, 1969; Maarten van den Buuse: Circadian Rhythms of Blood Pressure, Heart Rate, and Locomotor Activity in Spontaneously Hypertensive Rats as Measured With Radio-Telemetry. Physiology & Behavior 55(4): 783-787, 1994 B-4. Determination of Pharmacokinetic Parameters Following Intravenous and Oral Administration
The pharmacokinetic parameters of the compounds of the formula (I) according to the invention are determined in male CD-1 mice, male Wistar rats and female beagles. Intravenous administration in the case of mice and rats is effected by means of a species-specific plasma/DMSO formulation, and in the case of dogs by means of a water/PEG400/ethanol formulation. In all species, oral administration of the dissolved substance is performed via gavage, based on a water/PEG400/ethanol formulation. The removal of blood from rats is simplified by inserting a silicone catheter into the right Vena jugularis externa prior to substance administration. The operation is effected at least one day prior to the experiment with isofluran anaesthesia and administration of an analgesic ([…]/rimadyl (3/1) 0.1 ml s.c.). The blood is taken (generally more than 10 time points) within a time window including terminal time points of at least 24 to a maximum of 72 hours after substance administration. The blood is removed into heparinized tubes. The blood plasma is then obtained by centrifugation; if required, it can be stored at −20° C. until further processing.
An internal standard (which may also be a chemically unrelated substance) is added to the samples of the compounds of the formula (I) according to the invention, calibration samples and qualifiers, and this is followed by protein precipitation using excess acetonitrile. Addition of a buffer solution matched to the LC conditions, and subsequent vortexing, is followed by centrifugation at 1000 g. The supernatant is analysed by means of LC-MS/MS using C18 reversed-phase columns and variable mobile phase mixtures. The substances are quantified via the peak heights or areas from extracted ion chromatograms of specific selected ion monitoring experiments.
The plasma concentration/time plots determined are used to calculate the pharmacokinetic parameters such as AUC (area under the curve), Cmax, t1/2 (terminal half life), F (bioavailability), MRT (mean residence time) and CL (clearance), using a validated pharmacokinetic calculation programme.
Since the substance quantification is performed in plasma, it is necessary to determine the blood/plasma distribution of the substance in order to be able to adjust the pharmacokinetic parameters correspondingly. For this purpose, a defined amount of substance is incubated in heparinized whole blood of the species in question in a rocking roller mixer for 20 min. After centrifugation at 1000 g, the plasma concentration is measured (by means of LC-MS/MS; see above) and determined by calculating the ratio of the Cblood/Cplasma value.

By MRT is commonly meant the average time that molecules of a dose stay in the body. In general, half-life refers to how long it takes for the measured level to halve. On to `C[C@@]1(C(F)(F)F)C(=O)Nc2nc(-c3nn(Cc4ncccc4F)c4ncc(F)cc34)nc(NCCC(F)(F)F)c21` (single isomer, unassigned) [Example 1-1], for which the AUCnorm is 1.77 kg·h/L, the CLblood was 11.7 mL/min/kg and the F was 98.8%. For the setting “male, Wistar, rat, plasma”, this compound had a mean residence time MRT of 6.6 h and a half-life of 5.9 h.

The record behind these values is patent US9266871B2, “Trifluoromethyl-substituted fused pyrimidines and their use” (BAYER PHARMA AKTIENGESELLSCHAFT, priority 2013, dated 2016).
